# Patent US5972955A, “Water soluble C-ring analogues of 20(S)-camptothecin” (Dr. Reddy's Research Foundation, priority 1996, dated 1999)
# “Also recorded” adds a separate entry of the source.
# Columns and labels:
# [1] = system: NCI's 60 human tumor cell line assay; assay: NCI 60 human tumor cell line assay, mean growth inhibition (Table 1); assay type: cell-based; details: read-out: IC50 = the mean value of the minimum drug concentration of the agent required to produce 50% cell growth inhibition (GI50); mean over NCI's 60 human tumor cell lines; 48 h; Sulforhodamine B
# Method: (§1) Inoculates were allowed a preincubation period of 24 h at 37° C. for stabilization.
# ^a IC50 = the mean value of the minimum drug concentration (μm) of
# NCI's 60 human tumor cell line assay.
# topoisomerase I = details: cited from earlier work
# [2] = cited from earlier work
# [3] = in vivo; cited from earlier work
# Human Serum Albumin = details: in the presence of HSA at 37° C.; cited from earlier work
# 786-O = assay: NCI in vitro growth inhibition, renal 786-O; assay type: cell-based; details: Homo sapiens, 786-0, read-out: 50% Growth Inhibition (GI 50), 48 h
# Method: as §1
# SK MEL-5 = assay: NCI in vitro growth inhibition, melanoma SK MEL-5; assay type: cell-based; details: Homo sapiens, read-out: 50% Growth Inhibition (GI 50); SK MEL-5, melanoma; 48 h
# Method: as §1
# MCF-7 = assay: NCI in vitro growth inhibition, breast MCF-7; assay type: cell-based; details: Homo sapiens, MCF7, read-out: 50% Growth Inhibition (GI 50); MCF-7, breast; 48 h
# Method: as §1
# SF 295 = assay: NCI in vitro growth inhibition, CNS SF 295; assay type: cell-based; details: Homo sapiens, read-out: 50% Growth Inhibition (GI 50); SF 295, CNS; 48 h
# Method: as §1
# SR = assay: NCI in vitro growth inhibition, leukemia SR; assay type: cell-based; details: Homo sapiens, read-out: 50% Growth Inhibition (GI 50), 48 h
# Method: as §1
# LOX IMVI = assay: NCI in vitro growth inhibition, melanoma LOX IMVI; assay type: cell-based; details: Homo sapiens, read-out: 50% Growth Inhibition (GI 50), 48 h
# Method: as §1
# MOLT-4 = assay: NCI in vitro growth inhibition, leukemia MOLT-4; assay type: cell-based; details: Homo sapiens, read-out: 50% Growth Inhibition (GI 50); MOLT-4, leukemia; 48 h
# Method: as §1
# SF-539 = assay: NCI in vitro growth inhibition, CNS SF-539; assay type: cell-based; details: Homo sapiens, read-out: 50% Growth Inhibition (GI 50); SF-539, CNS; 48 h
# Method: as §1
# M-14 = assay: NCI in vitro growth inhibition, melanoma M-14; assay type: cell-based; details: Homo sapiens, M14, read-out: 50% Growth Inhibition (GI 50); M-14, melanoma; 48 h
# Method: as §1
# MCF7/ADR = assay: NCI in vitro growth inhibition, breast MCF7/ADR; assay type: cell-based; details: Homo sapiens, NCI/ADR-RES, read-out: 50% Growth Inhibition (GI 50), 48 h
# Method: as §1
# ACHN = assay: NCI in vitro growth inhibition, renal ACHN; assay type: cell-based; details: Homo sapiens, read-out: 50% Growth Inhibition (GI 50), 48 h
# Method: as §1
# T 47D = assay: NCI in vitro growth inhibition, breast T 47D; assay type: cell-based; details: Homo sapiens, T47D, read-out: 50% Growth Inhibition (GI 50), 48 h
# Method: as §1
# UACC 62 = assay: NCI in vitro growth inhibition, melanoma UACC 62; assay type: cell-based; details: Homo sapiens, read-out: 50% Growth Inhibition (GI 50); UACC 62, melanoma; 48 h
# Method: as §1
# HOP 62 = assay: NCI in vitro growth inhibition, NSLC HOP 62; assay type: cell-based; details: Homo sapiens, read-out: 50% Growth Inhibition (GI 50); HOP 62, NSLC; 48 h
# Method: as §1
# H 522 = assay: NCI in vitro growth inhibition, NSLC H 522; assay type: cell-based; details: Homo sapiens, NCI-H522, read-out: 50% Growth Inhibition (GI 50); H 522, NSLC; 48 h
# Method: as §1
# H 460 = assay: NCI in vitro growth inhibition, NSLC H 460; assay type: cell-based; details: Homo sapiens, NCI-H460, read-out: 50% Growth Inhibition (GI 50); H 460, NSLC; 48 h
# Method: as §1
# HL 60 = assay: NCI in vitro growth inhibition, leukemia HL 60; assay type: cell-based; details: Homo sapiens, read-out: 50% Growth Inhibition (GI 50); HL 60, leukemia; 48 h
# Method: as §1
# H 23 = assay: NCI in vitro growth inhibition, NSLC H 23; assay type: cell-based; details: Homo sapiens, NCI-H23, read-out: 50% Growth Inhibition (GI 50); H 23, NSLC; 48 h
# Method: as §1
# SF-268 = assay: NCI in vitro growth inhibition, CNS SF-268; assay type: cell-based; details: Homo sapiens, SF-268, 48 h, read-out: 50% Growth Inhibition (GI 50)
# Method: as §1
# CAKI-1 = assay: NCI in vitro growth inhibition, renal CAKI-1; assay type: cell-based; details: Homo sapiens, read-out: 50% Growth Inhibition (GI 50); CAKI-1, renal; 48 h
# Method: as §1
# CCRF-CEM = assay: NCI in vitro growth inhibition, leukemia CCRF-CEM; assay type: cell-based; details: Homo sapiens, read-out: 50% Growth Inhibition (GI 50), 48 h
# Method: as §1
# [4] = compared with 20(RS)-camptothecin; cited from earlier work
compound,measurement,setting,value
"CCN(CC)CCNC1c2cc3c(OC)cccc3nc2-c2cc3c(c(=O)n21)COC(=O)[C@]3(O)CC (stereo partly shown) [9-Methoxy-5-(N,N-diethylethylenediamino) CPT]",IC50,[1],19.1 µM
"CCN(CC)CCCNC1c2cc3c(OC)cccc3nc2-c2cc3c(c(=O)n21)COC(=O)C3(O)CC (stereo not shown) [9-Methoxy-5-(N,N-diethylpropylenediamino) CPT]",IC50,[1],8.31 µM
CC[C@@]1(O)C(=O)OCc2c1cc1n(c2=O)C(NCCN2CCOCC2)c2cc3c(OC)cccc3nc2-1 (stereo partly shown) [9-Methoxy-5-morphilinoethylamino CPT],IC50,[1],> 30 µM
CC[C@@]1(O)C(=O)OCc2c1cc1n(c2=O)C(NCCN2CCCCC2)c2cc3c(OC)cccc3nc2-1 (stereo partly shown) [9-Methoxy-5-piperidinoethylamino CPT],IC50,[1],28.1 µM
CC[C@@]1(O)C(=O)OCc2c1cc1n(c2=O)C(NCCN2CCCC2)c2cc3c(OC)cccc3nc2-1 (stereo partly shown) [9-Methoxy-5-pyrrolidinoethylamino CPT],IC50,[1],31.6 µM
CC[C@@]1(O)C(=O)OCc2c1cc1n(c2=O)Cc2cc3ccccc3nc2-1 [20(S)-Camptothecin],inhibition of topoisomerase I (in words),topoisomerase I,inhibitor of topoisomerise I
same,water solubility (in words),[2],low water solubility
same,side effects / toxicity (in words),[3],unacceptable side effects on humans; also recorded: high toxicity problems
CCc1c2c(nc3ccc(OC(=O)N4CCC(N5CCCCC5)CC4)cc13)-c1cc3c(c(=O)n1C2)COC(=O)[C@]3(O)CC [CPT-11],percentage (%) of lactone form at equilibrium (in words),Human Serum Albumin,a higher percentage (%) of lactone form at equilibrium than 20(S) camptothecin of the formula 2 and 9-aminocamptothecin of the formula 5
"CC[C@@]1(O)C(=O)OCc2c1cc1n(c2=O)C(NO)c2cc3ccccc3nc2-1 (stereo partly shown) [Example 1, 5-Hydroxylaminocamptothecin]",GI50,786-O,0.56 µM
same,GI50,SK MEL-5,3.38 µM
same,GI50,MCF-7,0.34 µM
same,GI50,SF 295,0.25 µM
same,GI50,SR,0.53 µM
same,GI50,LOX IMVI,3.38 µM
same,GI50,MOLT-4,0.18 µM
same,GI50,SF-539,1.2 µM
same,GI50,M-14,0.37 µM
same,GI50,MCF7/ADR,2.18 µM
same,GI50,ACHN,0.4 µM
same,GI50,T 47D,0.2 µM
same,GI50,UACC 62,0.37 µM
same,GI50,HOP 62,0.38 µM
same,GI50,H 522,0.2 µM
same,IC50,[1],2.39 µM
same,GI50,H 460,0.48 µM
same,GI50,HL 60,0.38 µM
same,GI50,H 23,1.62 µM
"CC[C@@]1(O)C(=O)OCc2c1cc1n(c2=O)C(NCCO)c2cc3ccccc3nc2-1 (stereo partly shown) [Example 2, 5-(2'-hydroxyethylamino)camptothecin]",IC50,[1],> 30 µM
"CC[C@@]1(O)C(=O)OCc2c1cc1n(c2=O)C(NCCN(C)C)c2cc3ccccc3nc2-1 (stereo partly shown) [Example 4, 5-(N,N-Dimethylethylenediamino)camptothecin]",IC50,[1],> 30 µM
"CC[C@@]1(O)C(=O)OCc2c1cc1n(c2=O)C(NCc2ccccc2)c2cc3ccccc3nc2-1 (stereo partly shown) [Example 5, 5-Benzylaminocamptothecin]",IC50,[1],> 30 µM
"CC[C@@]1(O)C(=O)OCc2c1cc1n(c2=O)C(NCCCl)c2cc3ccccc3nc2-1 (stereo partly shown) [Example 6, 5-(2'-chloroethylamino)camptothecin]",IC50,[1],19 µM
"CC[C@@]1(O)C(=O)OCc2c1cc1n(c2=O)C(NCCN(C)C)c2cc3c(OC)cccc3nc2-1 (stereo partly shown) [Example 7, 5-(N,N-Dimethylethylenediamino)-9-methoxycamptothecin]",IC50,[1],9.54 µM
CC[C@@]1(O)C(=O)OCc2c1cc1n(c2=O)C(NCC(O)CO)c2cc3c(OC)cccc3nc2-1 (stereo partly shown) [Example 9],IC50,[1],6.6 µM
"CC[C@@]1(O)C(=O)OCc2c1cc1n(c2=O)C(NCCCCO)c2cc3c(OC)cccc3nc2-1 (stereo partly shown) [Example 10, 5-(4'-hydroxybutylamino)-9-methoxycamptothecin]",IC50,[1],13.1 µM
"CC[C@@]1(O)C(=O)OCc2c1cc1n(c2=O)C(NO)c2cc3cc(O)ccc3nc2-1 (stereo partly shown) [Example 11, 10-Hydroxy-5-hydroxylaminocamptothecin]",GI50,786-O,2.69 µM
same,GI50,SK MEL-5,15 µM
same,GI50,MCF-7,4.07 µM
same,GI50,SF 295,4.89 µM
same,GI50,SR,0.1 µM
same,GI50,LOX IMVI,2.69 µM
same,GI50,MOLT-4,0.01 µM
same,GI50,SF-539,3.16 µM
same,GI50,SF-268,2.45 µM
same,GI50,M-14,4.26 µM
same,GI50,MCF7/ADR,> 30 µM
same,GI50,ACHN,3.16 µM
same,GI50,T 47D,1.28 µM
same,GI50,UACC 62,4.16 µM
same,GI50,CAKI-1,4.26 µM
same,GI50,HOP 62,7.41 µM
same,GI50,H 522,5.37 µM
same,IC50,[1],10 µM
same,GI50,H 460,1.54 µM
same,GI50,HL 60,1.86 µM
same,GI50,H 23,4.16 µM
"CC[C@@]1(O)C(=O)OCc2c1cc1n(c2=O)C(NC)c2cc3ccccc3nc2-1 (stereo partly shown) [Example 12, 5-Methylaminocamptothecin]",GI50,786-O,4.07 µM
same,GI50,SK MEL-5,2.51 µM
same,GI50,MCF-7,1.25 µM
same,GI50,SF 295,1.12 µM
same,GI50,SR,0.03 µM
same,GI50,LOX IMVI,2.34 µM
same,GI50,MOLT-4,0.15 µM
same,GI50,SF-539,1.81 µM
same,GI50,SF-268,0.85 µM
same,GI50,M-14,2.18 µM
same,GI50,MCF7/ADR,1.94 µM
same,GI50,ACHN,0.97 µM
same,GI50,T 47D,4.67 µM
same,GI50,CCRF-CEM,0.23 µM
same,GI50,CAKI-1,2.29 µM
same,GI50,HOP 62,1.73 µM
same,GI50,H 522,2.88 µM
same,IC50,[1],4.67 µM
same,GI50,HL 60,0.22 µM
same,GI50,H 23,2.57 µM
"CC[C@@]1(O)C(=O)OCc2c1cc1n(c2=O)C(NCCN2CCCC2)c2cc3ccccc3nc2-1 (stereo partly shown) [Example 15, 5-(Pyrrolidinoethylamino)camptothecin]",IC50,[1],> 30 µM
"CC[C@@]1(O)C(=O)OCc2c1cc1n(c2=O)C(NCCN2CCCCC2)c2cc3ccccc3nc2-1 (stereo partly shown) [Example 16, 5-(Piperidinoethylamino)camptothecin]",IC50,[1],23.4 µM
"CCc1c2c(nc3ccc(O)cc13)-c1cc3c(c(=O)n1C2)COC(=O)[C@]3(O)CC [SN-38, 7-ethyl-10-hydroxycamptothecin]",percentage (%) of lactone form at equilibrium (in words),Human Serum Albumin,a higher percentage (%) of lactone form at equilibrium than 20(S) camptothecin of the formula 2 and 9-aminocamptothecin of the formula 5
CC[C@@]1(O)C(=O)OCc2c1cc1n(c2=O)Cc2cc3c(CN(C)C)c(O)ccc3nc2-1 [Topotecan],percentage (%) of lactone form at equilibrium (in words),Human Serum Albumin,a higher percentage (%) of lactone form at equilibrium than 20(S) camptothecin of the formula 2 and 9-aminocamptothecin of the formula 5
CCc1c2c(nc3ccc(OC)cc13)-c1cc3c(c(=O)n1C2)COC(=O)[C@]3(N)CC [formula 6],in vivo antitumor activity (in words),[4],increased in vivo antitumor activity than 20(RS)-camptothecin
C=C1C(=O)OCc2c1cc1n(c2=O)Cc2c-1nc1ccc(O)cc1c2CC [formula 8],inhibition of topoisomerase I (in words),topoisomerase I,potent camptothecin like inhibition of topoisomerase I activity
